# Measurements reported in patent US8765941B2 (Kino Pharma, Inc., priority 2008, dated 2014).
# How the values were obtained:
# LuHCV cells = assay: Evaluation of cell growth suppression using LuHCV cells (percentage of viable cells, reagent SF); assay type: cell-based, human; settings: 48 hours, DMSO = 100%
# Procedure: At this time, as a background absorbance, measurement was also performed for wells containing test compounds (or DMSO used as a control), but containing no cells. Each of the thus obtained background numerical values was deducted from the absorbance of a cell-containing well (measured for the same compound at the same concentration). The resulting value was designated as actual measurement of number of viable cells containing no background. […] With an average value measured for DMSO used as a control test substance designated as 100%, the percentage of the number of viable cells for each test compound was calculated.
# At this time, as a background absorbance, measurement was also performed for wells containing test compounds (or containing DMSO used as a control), but containing no cells. Each of the thus obtained background numerical values was deducted from the absorbance of a cell-containing well (measured for the same compound at the same concentration). The resulting value was designated as actual measurement of number of viable cells containing no background. […] By using a value measured upon addition of DMSO used as a control test substance designated as 100%, the percentage of the number of viable cells for each test compound was calculated. Table 1-2 and FIG. 2B show the percentage of the number of viable cells (cell viability (% control)) for each test compound at each concentration.
# [1] = system: intracellular HCV protein (NS3-NS4-NS5A-NS5B); assay: HCV viral protein expression assay using LuHCV cells (luciferase activity); settings: for activity at 10 µM / activity at 20 µM: Hepatitis C virus, 48 h, read-out: luc activity (% control)
# Procedure: As an HCV viral protein expression assay, screening was performed for compounds having anti-HCV activity using human hepatocytes with which the replication and expression of the intracellular HCV protein (NS3-NS4-NS5A-NS5B) can be evaluated through determination of luciferase activity (hereinafter, referred to as LuHCV).
# LuHCV cells were plated onto 96-well plates at 5×10^3 cells/50 μL/well and then incubated overnight. Test compounds were each dissolved in dimethyl sulfoxide (DMSO) and dilution series were prepared using DMSO, if necessary. On the next day of plating of LuHCV cells, a medium containing a test compound with a concentration twice the final test concentration was added at 50 μL/well. Cells were gently cultured under culture conditions of 48 hours, 37° C., and 5% CO2 (the final concentrations of the test compounds: 0, 10, and 20 μM). At this time, analysis was made using 3 test wells for each test compound and for each concentration.
# Culture medium was removed after 48 hours. Glo lysis buffer (100 μL) (Promega) was added to each well and then cells were disrupted, so that a cell extract was obtained. With the use of 50 μL of the thus obtained cell extract, 50 μL of a Bright-Glo™ Luciferase Assay System (Promega) reagent was added. Luciferase activity in the extract was determined by measuring luminescence intensity for one second using a measuring device ARVO (PerkinElmer Co., Ltd.).
# Based on the thus obtained numerical values of luminescence intensity, an average value for each test compound at each concentration was calculated. The luminescence intensity percentage for each test compound was calculated based on a luminescence intensity for DMSO (used as a control for test substances) as 100%.
# Culture medium was removed after 48 hours. Glo Lysis buffer (100 μL) (Promega) was added to each well and then cells were disrupted, so that a cell extract was obtained. With the use of 50 μL of the thus obtained cell extract, 50 μL of a Bright-Glo™ Luciferase Assay System (Promega) reagent was added. Luciferase activity in the extract was determined by measuring luminescence intensity for one second using a measuring device ARVO (PerkinElmer Co., Ltd.).
# Based on the thus obtained numerical values of luminescence intensity, an average value for each test compound at each concentration was calculated. The luminescence intensity percentage for each test compound was calculated based on a luminescence intensity of DMSO (used as a control for test substances) as 100%.
Compound,viability (% control) (LuHCV cells; 10 μM),viability (% control) (LuHCV cells; 20 μM),activity at 10 µM [1],activity at 20 µM [1],"luciferase activity (result in words) ([1]; 0, 10 and 20 μM, 48 hours, LuHCV cells)"
"O=C(Nc1cc(C(F)(F)F)ccc1N1CCC[C@H]2CCCC[C@@H]21)c1ccncc1 (relative stereo) [Compound 19, N-[2-(trans-2-azabicyclo[4.4.0]decan-2-yl)-5-(trifluoromethyl)phenyl]isonicotinamide]",99.02 % control,91.02 % control,51%,33.5%,
"FC(F)(F)c1ccc(N2CCC[C@H]3CCCC[C@@H]32)c(NC(=S)c2ccncc2)c1 (relative stereo) [Compound 21, N-[2-(trans-2-azabicyclo[4.4.0]-decan-2-yl)-5-(trifluoromethyl)phenyl]isonicotinthioamide]",94.44 % control,93.56 % control,56.8%,34%,
"FC(F)(F)c1ccc(N2CC[C@H]3CCCC[C@@H]3C2)c(NC(=S)c2ccncc2)c1 (relative stereo) [Compound 22, N-[2-(trans-3-azabicyclo[4.4.0]decan-3-yl)-5-(trifluoromethyl)phenyl]isonicotinthioamide]",104.65 % control,96.39 % control,42.6%,21.9%,
"O=C(NC(=S)Nc1cc(C(F)(F)F)ccc1N1CC[C@H]2CCCC[C@@H]2C1)c1ccccc1 (relative stereo) [Compound 23, 1-benzoyl-3-[2-(trans-3-azabicyclo[4.4.0]decan-3-yl)-5-(trifluoromethyl)phenyl]thiourea]",106.72 % control,104.93 % control,64%,49.4%,
"FC(F)(F)c1ccc(N2CCCCC2)c(NC(=S)c2ccncc2)c1 [Compound 2, N-[2-(1-piperidinyl)-5-(trifluoromethyl)phenyl]isonicotinthioamide]",,,,,Decreases in luciferase activity
"O=C(NC(=S)Nc1cc(C(F)(F)F)ccc1N1CCCCC1)c1cccnc1 [Compound 3, 1-nicotinoyl-3-[2-(1-piperidinyl)-5-(trifluoromethyl)phenyl]thiourea]",103.79 % control,93.82 % control,69.3%,43.2%,
"O=C(NC(=S)Nc1cc(C(F)(F)F)ccc1N1CCCCCC1)c1cccnc1 [Compound 4, N-nicotinoyl-N′[2-(azacycloheptan-1-yl)-5-(trifluoromethyl)phenyl]thiourea]",93.86 % control,89.76 % control,65.8%,44.5%,
"O=C(NC(=S)Nc1cc(C(F)(F)F)ccc1N1CCCCCCC1)c1ccncc1 [Compound 7, N-isonicotinoyl-N′-[2-(azacyclooctan-1-yl)-5-(trifluoromethyl)phenyl]thiourea]",76.97 % control,71.85 % control,30.7%,16.4%,
"O=C(NC(=O)c1cccnc1)Nc1cc(C(F)(F)F)ccc1N1CCCCCCC1 [Compound 8, N-nicotinoyl-N′-[2-(azacyclooctan-1-yl)-5-(trifluoro-methyl)phenyl]urea]",77.35 % control,77.81 % control,55.7%,58%,
O=C(NC(=S)Nc1cc(F)ccc1N1CCCCCCC1)c1cccnc1 [Compound 9],82.79 % control,73.39 % control,33.6%,26%,
"Cc1ccc(C(=O)NC(=S)Nc2cc(C(F)(F)F)ccc2N2CCCCCCC2)cn1 [Compound 10, N-(6-methylnicotinoyl)-N′-[2-(azacyclo-octan-1-yl)-5-(trifluoro-methyl)phenyl]thiourea]",96.19 % control,89.38 % control,41.2%,26.9%,
